Laboratory results from patent US20070031336A1, “3H-phenoxazine derivatives suitable as near-infrared imaging agents, preparation an use thereof” (priority 2003, published 2007).

Experiments:
[1] = exc. 595 nm; cited from earlier work
[2] = UV/VIS absorption spectra; format: physicochemical
Method: (§1) UV/VIS and fluorescence spectra are recorded and analyzed. For UV/VIS spectra, a Lambda 19 spectrometer from Perkin Elmer equipped with cells of 1.000 cm pathlength is used. The scan rate is 120 nm/min. The fluorescence data are obtained on a Spex Fluorolog (I.S.A.) spectrometer equipped with a cooled R928 detector (Slit 1 mm). Quantum yields are determined by using Cresylviolett (exc. 595 nm, yield=0.54) as standard.

[3] = Fluorescence spectra and quantum yield; format: physicochemical; conditions: for Fluorescence φ (quantum yield): standard Cresylviolett
Method: as §1

[4] = biological target: T1, aggregated Aβ peptide Aβ1-140 (Homo sapiens, UniProt P05067); assay: Binding to aggregated Aβ in solution by differential fluorescence spectroscopy
T1 construct: aggregated Aβ peptide Aβ1-140 in solution
T1 sequence (P05067 672-711 limits assumed): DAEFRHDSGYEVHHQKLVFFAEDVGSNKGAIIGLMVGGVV
Method: (§2) Binding of the agent of the invention (compound Ex. 3) to aggregated Aβ peptide Aβ1-140 in solution is investigated by differential fluorescence spectroscopy and thioflavine displacement. […] Difference spectra are recorded at different concentrations of the agent of the invention (compound Ex. 3) with the magnitude of the fluorescence shift being dependent on the concentration of aggregated Aβ. Saturation is observed at high concentrations of the agent of the invention (compound Ex. 3), and the Kd-value for the agent of the invention (compound Ex. 3) is estimated to be 0.2 μM. In another experiment, aggregated Aβ is incubated with thioflavine T, where fluorescence intensity at 460-560 nm (excitation 445 nm) represents thioflavine bound to aggregated Aβ.

aggregated Aβ = biological target: T2, aggregated Aβ (Homo sapiens, UniProt P05067); assay: Thioflavine T displacement from aggregated Aβ; format: binding; conditions: fluorescence 460-560 nm, excitation 445 nm
T2 construct: aggregated Aβ peptide Aβ1-140 in solution
T2 sequence (P05067 672-711 limits assumed): as above
Method: as §2

AD plaques = assay: In vivo near-infrared imaging in APP23 mice; design: species or system mouse; conditions: female 16-months-old transgenic APP23 mice, 3 mg/kg i.v.
Method: For in vivo near-infrared imaging, 10- to 24-months-old transgenic APP23 mice (3≦n≦5) and as control, non-transgenic APP23 mice of the same age (3≦n≦4) are injected intravenously (i.v.) into the tail-vein with 0.1, 1 and 3 mg/kg agent of invention (0.1, 1 and 3 mg/10 ml in 0.9% saline). Images are recorded 30, 60, 120 and 240 min after systemic administration.

Absorption ε ([2]; solvent H2O)	Absorption λmax ([2]; solvent H2O)	Absorption ε ([2]; solvent methanol)	Absorption λmax ([2]; solvent methanol)	Absorption λmax ([2]; solvent mouse serum)	Fluorescence λmax ([3]; solvent H2O)	Fluorescence φ (quantum yield) ([3]; solvent H2O)	Fluorescence λmax ([3]; solvent methanol)	Fluorescence φ (quantum yield) ([3]; solvent methanol)	Fluorescence λmax ([3]; solvent mouse serum)	Fluorescence φ (quantum yield) ([3]; solvent mouse serum)	Kd ([4]; estimated from difference spectra, saturation at high concentrations)	Change of fluorescence spectrum upon β-amyloid binding ([4]; range of 680-720 nm)	Kd (aggregated Aβ; thioflavine concentrations 0.37 μM-3 μM, read-out: apparent binding constants)	SMILES	Quantum yield of the standard [1]	Effect on fluorescence of thioflavine bound to aggregated Aβ (aggregated Aβ)	Specific binding to AD plaques (FIG. 1) (AD plaques)
–	–	–	–	–	–	–	–	–	–	–	–	–	–	N=c1ccc2nc3c(cc(N)c4ccccc43)oc-2c1 [Cresylviolett]	0.54	–	–
56700 I/Mcm	657 nm	67430 I/Mcm	649 nm	658 nm	677 nm	24%	677 nm	61%	677 nm	28%	–	–	–	CC[N+]1=c2cc3c(cc2CCC1)=Nc1cc2c(cc1O3)N(C)CCO2.[Cl-] [Ex. 2, 8-Ethyl-4-methyl-2,3,4,9,10,11-hexahydro-1,6-dioxa-4,13-diaza-8-azonia-pentacen chloride]	–	–	–
61930 I/Mcm	650 nm	64570 I/Mcm	644 nm	650 nm	670 nm	37%	670 nm	61%	670 nm	41%	~200 nM	slightly reduced fluorescence intensity	100 to 200 nM	CN1CCOc2cc3c(cc21)Oc1cc2c(cc1=N3)OCC[N+]=2C.F[B-](F)(F)F [Ex. 3, 4,8-Dimethyl-3,8,9,10-tetrahydro-2H-1,6,11-trioxa-8,13-diaza-4-azonia-pentacen tetrafluoroborate]	–	concentration-dependent fluorescence reduction	specific binding
12880 I/Mcm	665 nm	13920 I/Mcm	659 nm	665 nm	695 nm	12%	695 nm	28%	695 nm	13%	–	–	–	CN1CCOc2cc3c(cc21)Oc1cc2c(cc1=N3)SCC[N+]=2C.[Cl-] [Ex. 4, 4,8-Dimethyl-2,3,9,10-tetrahydro-4H-1,6-dioxa-11-thia-4,13-diaza-8-azonia-pentacen chloride]	–	–	–
